These results are taken from paper PMC10724690, “Deciphering specificity and cross-reactivity in tachykinin NK1 and NK2 receptors” (The Journal of Biological Chemistry, 2023).

The target in assay [1] is T1, NK2R (Homo sapiens, UniProt P21452).
T1 construct: host or cells: COS7
T1 sequence (P21452 1-398): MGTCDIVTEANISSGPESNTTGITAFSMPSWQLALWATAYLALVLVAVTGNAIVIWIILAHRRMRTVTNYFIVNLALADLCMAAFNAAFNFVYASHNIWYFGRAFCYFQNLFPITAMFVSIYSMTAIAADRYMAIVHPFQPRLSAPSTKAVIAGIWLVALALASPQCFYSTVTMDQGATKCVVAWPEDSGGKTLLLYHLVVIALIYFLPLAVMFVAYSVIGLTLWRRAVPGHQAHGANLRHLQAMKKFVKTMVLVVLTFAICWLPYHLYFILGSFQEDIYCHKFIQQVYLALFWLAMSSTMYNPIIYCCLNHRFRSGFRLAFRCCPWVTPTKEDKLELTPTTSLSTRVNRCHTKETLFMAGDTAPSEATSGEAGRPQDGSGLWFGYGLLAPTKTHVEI
Put plainly: IP3 (IP accumulation) assay, wildtype NK2R. In kind it is cell-based. The note with it: for Emax: Fig 3a, alanine scan of NKA, dose response, IP accumulation ([3H]inositol, SPA) in transfected COS7 cells, 10 mM LiCl, 150 min 37 °C, four-parameter fit. As to the method:
(§1) COS7 cells (derived from African green monkey kidney fibroblast and originally bought from ThermoFisher) were maintained in Dulbecco´s Modified Eagle´s Medium 1885 with GlutaMAX supplemented with 10% fetal bovine serum (Sigma-Aldrich), 100 units/ml penicillin and 100 μg/ml streptomycin at 37 °C with 10% CO2. COS7 cells were plated in either clear-, white-, or white with clear bottom 96-well plates that were coated with poly-D-lysine (Sigma-Aldrich) 30 min prior to cell seeding (20.000 cells/well). The following day plates were transiently transfected using calcium precipitation with 200 ng/well DNA in a culture medium with the addition of 100 μM (final concentration) Chloroquine. Transfection was stopped 5 h later with the addition of a fresh maintenance medium. Fig. […] COS7 cells seeded in clear 96-well plates were incubated with 0.5 μCi/ml myo [3H]inositol (PerkinElmer) in 100 μl growth medium over night following the transfection. The subsequent day cells were washed twice with 200 μl/well HBSS (GIBCO, Life Technologies) and pre-incubated for 5 min at 37 °C with 100 μl/well HBSS buffer supplemented with 10 mM LiCl. Ligand addition was followed by 150 min incubation at 37 °C. To stop ligand incubation, cells were lysed with 40 μl 10 mM formic acid followed by 30 min incubation on ice. 35 μl of the lysate was transferred to white 96-well plates together with 60 μl of 1:8 diluted YSi SPA scintillation beads (PerkinElmer). Plates were sealed and vigorously shaken for 15 min followed by 5 min centrifugation at 1500 rpm. Measurements (scintillation) were recorded on a Microbeta (PerkinElmer) after a 4 h delay and determinations were made in duplicates. All dose-response curves have been calculated using Prism 10 software (GraphPad Software) non-linear regression with four parameters. All data are shown as mean ± SEM unless stated otherwise and consist of two technical replicates from three biological replicates.

Assay [2] addresses T2, NK1R (Homo sapiens, UniProt P25103).
T2 construct: host or cells: COS7
Put plainly: BRET-based cAMP assay, wildtype NK1R. In kind it is cell-based. The conditions noted are these: COS-7, Fig 7d, NK1R WT, ligand NKA (by identity with Fig 5b values). As to the method: (§2) COS7 cells (derived from African green monkey kidney fibroblast and originally bought from ThermoFisher) were maintained in Dulbecco´s Modified Eagle´s Medium 1885 with GlutaMAX supplemented with 10% fetal bovine serum (Sigma-Aldrich), 100 units/ml penicillin and 100 μg/ml streptomycin at 37 °C with 10% CO2. COS7 cells were plated in either clear-, white-, or white with clear bottom 96-well plates that were coated with poly-D-lysine (Sigma-Aldrich) 30 min prior to cell seeding (20.000 cells/well). The following day plates were transiently transfected using calcium precipitation with 200 ng/well DNA in a culture medium with the addition of 100 μM (final concentration) Chloroquine. Transfection was stopped 5 h later with the addition of a fresh maintenance medium. Fig. […] The intracellular level of cAMP was monitored in real-time using bioluminescence resonance energy transfer (BRET). This was achieved by implementing a construct consisting of a cAMP binding protein (Exchange protein activated by cAMP (Epac)) which has been flanked by a BRET pair consisting of Renilla luciferase (Rluc) and yellow fluorescent protein (YFP). […] The BRET signal was calculated as the ratio of emission intensity at 535 nm (citrine) to the emission intensity at 475 nm (luciferase). […] All dose-response curves have been calculated using Prism 10 software (GraphPad Software) non-linear regression with four parameters. […]
In general terms: In BRET a luciferase serves as donor, and the signal depends on an acceptor being close.

The target in assay [3] is T3, NK1R-R177Q (Homo sapiens, UniProt P25103, R177Q).
T3 construct: host or cells: COS7
T3 sequence (P25103 whole entry R177Q): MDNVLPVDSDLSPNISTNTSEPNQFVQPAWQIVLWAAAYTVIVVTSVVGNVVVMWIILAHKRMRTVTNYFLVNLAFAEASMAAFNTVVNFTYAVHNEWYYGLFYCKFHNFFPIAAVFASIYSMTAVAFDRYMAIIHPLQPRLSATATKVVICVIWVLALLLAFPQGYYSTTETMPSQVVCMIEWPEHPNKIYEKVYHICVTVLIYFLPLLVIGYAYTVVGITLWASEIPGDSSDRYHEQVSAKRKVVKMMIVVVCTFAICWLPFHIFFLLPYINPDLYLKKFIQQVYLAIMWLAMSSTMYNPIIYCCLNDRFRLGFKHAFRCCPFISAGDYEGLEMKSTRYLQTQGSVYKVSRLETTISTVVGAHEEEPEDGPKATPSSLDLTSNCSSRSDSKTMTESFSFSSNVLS
Put plainly: BRET-based cAMP assay, NK1R-R177Q. In kind it is cell-based. The note with it: COS-7. As for the experimental part: as §2

The target in the next assay is T4, NK1R-R177K (Homo sapiens, UniProt P25103, R177K).
T4 construct: host or cells: COS7
T4 sequence (P25103 whole entry R177K): as the sequence (P25103 whole entry R177Q) above, with Q177K counted along it
Put plainly: BRET-based cAMP assay, NK1R-R177K. In kind it is cell-based. The conditions noted are these: COS-7. As to the method:
as §2

Assay [4] concerns the target T2, NK1R. Put plainly: IP3 (IP accumulation) assay, wildtype NK1R. In kind it is cell-based. As to the method: as §1, with “Ligand addition was followed by 150 min incubation at 37 °C. To stop ligand incubation, cells were lysed with 40 μl 10 mM formic acid followed by 30 min incubation on ice. 35 μl of the lysate was transferred to white 96-well plates together with 60 μl of 1:8 diluted YSi SPA scintillation beads (PerkinElmer). Plates were sealed and vigorously shaken for 15 min followed by 5 min centrifugation at 1500 rpm.” left out, “All data are shown as mean ± SEM unless stated otherwise and consist of two technical replicates from three biological replicates.” left out

Assay [5] has as its target T3, NK1R-R177Q. Put plainly: IP3 activation assay, NK1R-R177Q. In kind it is cell-based. The conditions noted are these: COS-7. As for the experimental part: as §1, with “Ligand addition was followed by 150 min incubation at 37 °C. To stop ligand incubation, cells were lysed with 40 μl 10 mM formic acid followed by 30 min incubation on ice. 35 μl of the lysate was transferred to white 96-well plates together with 60 μl of 1:8 diluted YSi SPA scintillation beads (PerkinElmer). Plates were sealed and vigorously shaken for 15 min followed by 5 min centrifugation at 1500 rpm.” left out, “All data are shown as mean ± SEM unless stated otherwise and consist of two technical replicates from three biological replicates.” left out

Assay [6] concerns the target T1, NK2R. The note with it: ref [19], cited from earlier work. An excerpt:
In sharp contrast, NKA-D4 and NKA6-10 are found to be critical for activity.

Where no end group is shown, it is not given here.

T2 sequence (P25103 whole entry): as the sequence (P25103 whole entry R177Q) above, with Q177R counted along it

Compound `CSCC[C@H](NC(=O)[C@H](CC(C)C)NC(=O)CNC(=O)[C@@H](NC(=O)[C@H](Cc1ccccc1)NC(=O)[C@H](CO)NC(=O)[C@H](CC(=O)O)NC(=O)[C@@H](NC(=O)[C@H](CCCCN)NC(=O)[C@H](C)N)[C@@H](C)O)C(C)C)C(N)=O` [Ala1] came in with an EC50 at NK2R [1] of 0.715 nM.

`CSCC[C@H](NC(=O)[C@H](CC(C)C)NC(=O)CNC(=O)[C@@H](NC(=O)[C@H](Cc1ccccc1)NC(=O)[C@H](CO)NC(=O)[C@H](CC(=O)O)NC(=O)[C@@H](NC(=O)[C@H](CCCCN)NC(=O)[C@@H](N)Cc1c[nH]cn1)[C@@H](C)O)C(C)C)C(N)=O` [NKA, neurokinin A]: the Emax on NK1R [2] worked out at 109%; at NK1R-R177Q [3] it was 13.1%; on NK1R-R177K it was 10.7%; at NK1R [4] (COS-7, Fig 7c, IP3 activation assay, NK1R WT, ligand NKA (by identity with Fig 5a values)), 100%; on NK1R [4] (COS-7, Fig 5a, IP3 assay, NK1R WT in COS7 cells), 100%; on NK1R-R177Q [5] it was 59.3%. In the assay with NK2R [1], “Ala4: NKA variant of the alanine scan, alanine in position 4 (Asp) (HKTASFVGLM; ends and bridges not checked; UniProt P20366 98-107, looked up, variant D4A)” had an Emax of 1066.

In the assay with NK2R [1], “Ala7: NKA variant of the alanine scan, alanine in position 7 (HKTDSFAGLM; ends and bridges not checked; UniProt P20366 98-107, looked up, variant V7A)” showed an Emax of 178. In the assay with NK2R [1], “Ala9: NKA variant of the alanine scan, alanine in position 9 (HKTDSFVGAM; ends and bridges not checked; UniProt P20366 98-107, looked up, variant L9A)” gave an Emax of 136. HATDSFVGLM-NH2 [Ala2] showed an EC50 on NK2R [1] of 0.68 nM. HKADSFVGLM-NH2 [Ala3] registered an EC50 on NK2R [1] of 0.598 nM. For HKTDAFVGLM-NH2 [Ala5], at NK2R [1], the EC50 worked out at 25.9 nM.

The compound HKTDSFVGLA-NH2 [Ala10] yielded an EC50 on NK2R [1] of 31.9 nM. Turning to KDSFVGL(γ-lactam)M-NH2 [GR64349], the selectivity entry on NK2R [6] (NK2R agonist selectivity) is recorded as “most selective NK2R agonist reported so far”. Further, the agonist character result on NK2R [6] is “full agonist”.

Usually EC50 stands for the concentration at which the effect is half-maximal. Higher therefore signals lower potency in that assay.
